We go through eleven compounds from patent US20260297068A1, “SOLID FORM OF N-SUBSTITUTED PHENYLSULFONAMIDE COMPOUND” (SHANGHAI LEADO PHARMATECH CO. LTD., priority 2022, published 2026).

Molecules are shown by their SMILES. Where a name gives a salt, the structure may show the parent alone.

The nature of series [1]: Solid-state stability (HPLC purity and crystal form by XRPD after storage). It counts as physicochemical. The following applies: for Purity / Initial purity / HPLC purity after storage at 336 h / HPLC purity after storage at 672 h / HPLC purity after storage at 168 h: HPLC; for Initial purity: starting sample before storage; for HPLC purity after storage at 336 h / HPLC purity after storage at 672 h / HPLC purity after storage at 168 h: solid state, open. The method, then: About 10 mg of each solid form of the compound was weighed and added to the HPLC vial, respectively, the bottleneck was sealed with a sealing film, and 10 small holes were made on the film. The vial was placed in 25° C./60% RH and 40° C./75% RH environment for 4 weeks, samples were taken in the 1st week, the 2nd week and the 4th week respectively, the purity (by HPLC analysis) and crystal form (by X ray powder diffraction analysis) of the sample were investigated.

Series [2] is described as follows: Hygroscopicity by dynamic moisture adsorption (DVS). The conditions noted are these: 25° C./80% RH, 0% RH-95% RH adsorption curve. It counts as physicochemical. On the procedure: Dynamic moisture adsorption (DVS) analysis: the instrument is a DVS Intrinsic produced by SMS company (Surface Measurement Systems); temperature, 25° C.; carrier gas, flow rate: nitrogen, 200 mL/min; mass change per unit time: 0.002%/min; relative humidity range: 0% RH-95% RH.
Dynamic moisture absorption (DVS) was used to test their hygroscopicity.

[3] abbreviates: 25 °C/60% RH/open, 1 week, 10080 min.
Where [4] appears, read: 25 °C/60% RH/open, 2 weeks, 20160 min.
Setting [5] is: 25 °C/60% RH/open, 4 weeks, 40320 min.
Setting [6] is: 40 °C/75% RH/open, 1 week, 10080 min.
[7] abbreviates: 40 °C/75% RH/open, 2 weeks, 20160 min.
Setting [8] is: 40 °C/75% RH/open, 4 weeks, 40320 min.
The mark [9] stands for this setting: 25° C./60% RH and 40° C./75% RH, 4 weeks, result in words.

For `CNCc1ccc(NS(=O)(=O)c2ccsc2)c(-c2ccco2)c1` [Malonate crystal form K, N-(2-(furan-2-yl)-4-((methylamino)methyl)phenyl)thiophene-3-sulfonamide], the Purity is 98.64 area % in series [1] (setting [3]); 98.61 area % in series [1] (setting [4]); 98.59 area % in series [1] (setting [5]); 98.64 area % in series [1] (setting [6]); 98.58 area % in series [1] (setting [7]); 98.46 area % in series [1] (setting [8]). This compound registered an Initial purity in series [1] of 98.64 area %.
With `CNCc1ccc(NS(=O)(=O)c2ccsc2)c(-c2ccco2)c1` [Phosphate crystal form G, N-(2-(furan-2-yl)-4-((methylamino)methyl)phenyl)thiophene-3-sulfonamide], the Purity in series [1] (setting [3]) turned out to be 98.11 area %; in series [1] (setting [4]), 98.09 area %; in series [1] (setting [5]), 98.04 area %; in series [1] (setting [6]), 98.11 area %; in series [1] (setting [7]) it was 98.06 area %; in series [1] (setting [8]) it was 98.01 area %. The same compound came in with an Initial purity in series [1] of 98.11 area %.
For `CNCc1ccc(NS(=O)(=O)c2ccsc2)c(-c2ccco2)c1` [Pyroglutamate crystal form I, N-(2-(furan-2-yl)-4-((methylamino)methyl)phenyl)thiophene-3-sulfonamide], the Purity turned out to be 98.61 area % in series [1] (setting [3]); 98.58 area % in series [1] (setting [4]); 98.57 area % in series [1] (setting [5]); 98.61 area % in series [1] (setting [6]); 98.54 area % in series [1] (setting [7]); 98.32 area % in series [1] (setting [8]). Also, the Initial purity in series [1] turned out to be 98.61 area %.
As to `CNCc1ccc(NS(=O)(=O)c2ccsc2)c(-c2ccco2)c1` [Tartrate crystal form H, N-(2-(furan-2-yl)-4-((methylamino)methyl)phenyl)thiophene-3-sulfonamide], the Purity in series [1] (setting [3]) is 98.71 area %; in series [1] (setting [4]) it was 98.62 area %; in series [1] (setting [5]) it was 98.6 area %; in series [1] (setting [6]) it was 98.7 area %; in series [1] (setting [7]) it was 98.6 area %; in series [1] (setting [8]), 98.53 area %. Besides, the Initial purity in series [1] was 98.71 area %.
As to `CNCc1ccc(NS(=O)(=O)c2ccsc2)c(-c2ccco2)c1` [benzene sulfonate crystal form J, N-(2-(furan-2-yl)-4-((methylamino)methyl)-phenyl)thiophene-3-sulfonamide], the Purity in series [1] (setting [3]) is on record as 98.87 area %; in series [1] (setting [4]) it was 98.85 area %; in series [1] (setting [5]), 98.82 area %; in series [1] (setting [6]) it was 98.87 area %; in series [1] (setting [7]), 98.82 area %; in series [1] (setting [8]) it was 98.79 area %. The same compound returned an Initial purity in series [1] of 98.87 area %.
Turning to `CNCc1ccc(NS(=O)(=O)c2ccsc2)c(-c2ccco2)c1` [free crystal form A, N-(2-(furan-2-yl)-4-((methylamino)methyl)phenyl)thiophene-3-sulfonamide], the “moisture adsorption value (moisture uptake)” value (“moisture adsorption value” for short) in series [2] worked out at 1.6%. In addition, the “HPLC purity change on storage” value in series [1] (setting [9]) was “did not decrease significantly”. The “crystalline phase change on storage (XRPD)” value in series [1] (setting [9]) was “no detectable crystalline phase changes”. Moreover, the Purity is given as 98.18 area % in series [1] (setting [3]), 98.14 area % in series [1] (setting [4]), 98.1 area % in series [1] (setting [5]) and 98.19 area % in series [1] (setting [6]). In addition, the Initial purity in series [1] worked out at 98.11 area %. In addition, the HPLC purity after storage at 336 h in series [1] (40 °C/75% RH/open, 2 weeks) amounted to 98.2%. The compound also registered an HPLC purity after storage at 672 h in series [1] (40 °C/75% RH/open, 4 weeks) of 98.1%.
`CNCc1ccc(NS(=O)(=O)c2ccsc2)c(-c2ccco2)c1` [fumarate crystal form B, N-(2-(furan-2-yl)-4-((methylamino)methyl)phenyl)thiophene-3-sulfonamide]: the “moisture adsorption value” value in series [2] is recorded as 0.2%. For the same compound, the Purity was 98.5 area % in series [1] (setting [7]) and 98.52 area % in series [1] (setting [8]). In series [1], this compound registered an Initial purity of 98.55 area %. Also, the HPLC purity after storage at 168 h turned out to be 98.5% in series [1] (25 °C/60% RH/open, 1 week) and 98.4% in series [1] (40 °C/75% RH/open, 1 week). The same compound came in with an HPLC purity after storage at 336 h in series [1] (25 °C/60% RH/open, 2 weeks) of 98.5%. Moreover, in series [1] (25 °C/60% RH/open, 4 weeks), the HPLC purity after storage at 672 h was determined as 98.6%.
`CNCc1ccc(NS(=O)(=O)c2ccsc2)c(-c2ccco2)c1` [hydrochloride crystal form C, N-(2-(furan-2-yl)-4-((methylamino)methyl)phenyl)thiophene-3-sulfonamide]: the “moisture adsorption value” value in series [2] was determined as 5.5%. Moreover, the Purity in series [1] (setting [3]) is on record as 98.97 area %; in series [1] (setting [4]), 98.92 area %; in series [1] (setting [5]), 98.87 area %; in series [1] (setting [6]), 99.02 area %; in series [1] (setting [7]), 98.9 area %; in series [1] (setting [8]) it was 99 area %. This compound came in with an Initial purity in series [1] of 99.02 area %.
For `CNCc1ccc(NS(=O)(=O)c2ccsc2)c(-c2ccco2)c1` [malate crystal form F, N-(2-(furan-2-yl)-4-((methylamino)methyl)phenyl)thiophene-3-sulfonamide], the “moisture adsorption value” value in series [2] is 1.4%. Further, the Purity in series [1] (setting [3]) was 98.72 area %; in series [1] (setting [4]) it was 98.7 area %; in series [1] (setting [5]) it was 98.79 area %; in series [1] (setting [6]), 98.74 area %; in series [1] (setting [7]), 98.75 area %; in series [1] (setting [8]) it was 98.68 area %. Besides, the Initial purity in series [1] turned out to be 98.72 area %.
For `CNCc1ccc(NS(=O)(=O)c2ccsc2)c(-c2ccco2)c1` [succinate crystal form E, N-(2-(furan-2-yl)-4-((methylamino)methyl)phenyl)thiophene-3-sulfonamide], the “moisture adsorption value” value in series [2] is listed as 0.6%. In addition, the Purity in series [1] (setting [3]) came out at 98.92 area %; in series [1] (setting [4]), 98.86 area %; in series [1] (setting [5]), 98.94 area %; in series [1] (setting [6]), 98.92 area %; in series [1] (setting [7]), 98.72 area %; in series [1] (setting [8]), 98.98 area %. For the same compound, in series [1], the Initial purity is given as 98.82 area %.
Consider `CNCc1ccc(NS(=O)(=O)c2ccsc2)c(-c2ccco2)c1` [sulfate crystal form D, N-(2-(furan-2-yl)-4-((methylamino)methyl)phenyl)thiophene-3-sulfonamide], for which the “moisture adsorption value” value in series [2] was 1.3%. Also, the Purity in series [1] (setting [3]) is recorded as 98.74 area %; in series [1] (setting [4]) it was 98.65 area %; in series [1] (setting [5]), 98.78 area %; in series [1] (setting [6]) it was 98.76 area %; in series [1] (setting [7]), 98.65 area %; in series [1] (setting [8]), 98.78 area %. The compound also had an Initial purity in series [1] of 98.77 area %.
